PMC10208570, “Peptidomimetic antibiotics disrupt the lipopolysaccharide transport bridge of drug-resistant Enterobacteriaceae” (Science Advances, 2023)
Converted amounts (≈) assume the structure as drawn. Where two headings read alike, the source gives them in different places. Where a SMILES comes first, the peptide text is derived from it. Bridges are numbered along the chain shown (N, C = ends). [ ]: non-standard residue; d: D form. dHyp = O=C(O)[C@H]1C[C@H](O)CN1; dPen = CC(C)(S)[C@@H](N)C(=O)O; dDab = NCC[C@@H](N)C(=O)O; Dab = NCC[C@H](N)C(=O)O

How the values were obtained:
[1] = system: E. coli ATCC 25922 (parent / WT); assay: microbe, parasite or virus in culture; details: for MIC: Escherichia coli
Experimental: (§1) MIC assays [Clinical and Laboratory Standards Institute (CLSI) methodology] and serial passage studies were performed as described by Luther et al. ([6]). […] Resistant mutants were isolated, and their MIC values were determined and sent to Microbes NG (Birmingham, United Kingdom) for whole-genome sequencing and bioinformatic analysis.

[2] = system: K. pneumoniae ATCC 43816 (parent / WT); assay: microbe, parasite or virus in culture; details: for MIC: Klebsiella pneumoniae
Experimental: as §1

[3] = system: E. coli ATCC 25922 LptA Q62L mutant; assay: microbe, parasite or virus in culture; details: for MIC: Escherichia coli
Experimental: as §1

[4] = system: K. pneumoniae ATCC 43816 LptA Q62L mutant; assay: microbe, parasite or virus in culture
Experimental: as §1

[5] = system: K. pneumoniae 968733 (CST-R); assay: MIC assay (CLSI); format: cell-based, Klebsiella pneumoniae
Experimental: as §1

[6] = system: Klebsiella pneumoniae NCTC 13443 LptA I36S mutant; assay: microbe, parasite or virus in culture; details: Klebsiella pneumoniae, NCTC13443, read-out: MIC Klebsiella pneumoniae NCTC 13443 LptA I36S (2x)
Experimental: as §1

[7] = system: Klebsiella pneumoniae ATCC 43816 LptA I36N mutant; assay: microbe, parasite or virus in culture; details: Klebsiella pneumoniae, ATCC43816, read-out: MIC Klebsiella pneumoniae ATCC 43816 LptA I36N (1x)
Experimental: as §1

[8] = system: Klebsiella pneumoniae NCTC 13443 YejM mutant; assay: microbe, parasite or virus in culture; details: Klebsiella pneumoniae, NCTC13443, read-out: MIC Klebsiella pneumoniae NCTC 13443 YejM (1x)
Experimental: as §1

[9] = system: Klebsiella pneumoniae ATCC 43816 LptA L116Q mutant; assay: microbe, parasite or virus in culture; details: Klebsiella pneumoniae, ATCC43816, read-out: MIC Klebsiella pneumoniae ATCC 43816 LptA L116Q (1x)
Experimental: as §1

[10] = system: Escherichia coli ATCC 25922 KdsD mutant; assay: microbe, parasite or virus in culture; details: Escherichia coli, ATCC25922, read-out: MIC Escherichia coli ATCC 25922 KdsD (2x)
Experimental: as §1

[11] = system: Klebsiella pneumoniae ATCC 43816 LapB mutant; assay: microbe, parasite or virus in culture; details: Klebsiella pneumoniae, ATCC43816, read-out: MIC Klebsiella pneumoniae ATCC 43816 LapB (1x)
Experimental: as §1

[12] = system: Klebsiella pneumoniae ATCC 43816 PglJ, PhnJ, ThiH mutant; assay: microbe, parasite or virus in culture; details: Klebsiella pneumoniae, ATCC43816, read-out: MIC Klebsiella pneumoniae ATCC 43816 PglJ, PhnJ, ThiH (1x)
Experimental: as §1

[13] = system: K. pneumoniae NCTC 13443 (NDM-1) LptA Q62L mutant; assay: microbe, parasite or virus in culture; details: Klebsiella pneumoniae, NCTC13443, read-out: MIC Klebsiella pneumoniae NCTC 13443 LptA Q62L (5x)
Experimental: as §1

[14] = system: Klebsiella pneumoniae ATCC 43816 LptA I36S mutant; assay: microbe, parasite or virus in culture; details: Klebsiella pneumoniae, ATCC43816, read-out: MIC Klebsiella pneumoniae ATCC 43816 LptA I36S (1x)
Experimental: as §1

[15] = system: Klebsiella pneumoniae NCTC 13443 LpxC, LpxD mutant; assay: microbe, parasite or virus in culture; details: Klebsiella pneumoniae, NCTC13443, read-out: MIC Klebsiella pneumoniae NCTC 13443 LpxC, LpxD (1x)
Experimental: as §1

[16] = system: Escherichia coli ATCC 25922 LptA E84D mutant; assay: microbe, parasite or virus in culture; details: Escherichia coli, ATCC25922, read-out: MIC Escherichia coli ATCC 25922 LptA E84D (1x)
Experimental: as §1

[17] = system: K. pneumoniae NCTC 13443 (NDM-1) (parent / WT); assay: microbe, parasite or virus in culture; details: Klebsiella pneumoniae
Experimental: as §1

[18] = CLSI method, clone harboring LptA Q62L

With `CC[C@@H](C)[C@@H](NC(=O)[C@H]1C[C@H](O)CN1C(=O)[C@H](N)C(C)C)C(=O)N[C@@H](C(=O)N[C@H](Cc1ccc(O)cc1)C(=O)N[C@H]1C(=O)N[C@H](CC(N)=O)C(=O)N[C@H](CCCNC(=N)N)C(=O)N[C@H](CCN)C(=O)N[C@H]([C@H](C)O)C(=O)N[C@@H](CCN)C(=O)N[C@H](CCCCN)C(=O)N[C@@H](C(=O)N[C@H](CCN)C(=O)N[C@H](CCCNC(=N)N)C(=O)N[C@H](Cc2ccc(O)cc2)C(=O)O)CSSC1(C)C)[C@H](C)O` [6-enant.] (H-[dV][dHyp][dI][dT][dY][dPen][dN][dR][dDab][dT][Dab][dK][dC][dDab][dR][dY]-OH; disulfide 6-13) the “MIC E. coli ATCC 25922 Parent” value ([1]; CLSI method, parent strain) was over 8 micrograms per milliliter, the “MIC K. pneumoniae ATCC 43816 Parent” value ([2]; CLSI method, parent strain) was over 8 micrograms per milliliter and the “MIC E. coli ATCC 25922 Q62L mutant” value [3, 18] was over 8 micrograms per milliliter. The “MIC K. pneumoniae ATCC 43816 Q62L mutant” value [4, 18] was over 8 micrograms per milliliter and the “MIC K. pneumoniae 968733 (CST-R) Parent” value ([5]; CLSI method, colistin-resistant strain) was over 8 micrograms per milliliter.

Compound `CO[C@@H]1[C@@H](OC(N)=O)[C@@H](O)[C@H](Oc2ccc3c(O)c(NC(=O)c4ccc(O)c(CC=C(C)C)c4)c(=O)oc3c2C)OC1(C)C` [Novobiocin] has an MIC [6] of over 64 µg/mL, an MIC [7] of over 64 µg/mL and an MIC ([1]; ATCC25922, read-out: MIC Escherichia coli ATCC 25922 WT) of over 64 µg/mL. The MIC ([2]; ATCC43816, read-out: MIC Klebsiella pneumoniae ATCC 43816 WT) was over 64 µg/mL, the MIC [8] was over 64 µg/mL and the MIC [9] was over 64 µg/mL. It also gave an MIC [10] of 64 µg/mL (≈ 104 µM), an MIC [11] of 32 µg/mL (≈ 52.2 µM) and an MIC ([3]; ATCC25922, read-out: MIC Escherichia coli ATCC 25922 LptA Q62L (7x)) of 64 µg/mL (≈ 104 µM). It also gave an MIC [12] of 32 µg/mL (≈ 52.2 µM), an MIC [13] of over 64 µg/mL and an MIC [14] of over 64 µg/mL. For the same compound, the MIC [15] was over 64 µg/mL, the MIC [16] was over 64 µg/mL and the MIC ([4]; Klebsiella pneumoniae, ATCC43816, read-out: MIC Klebsiella pneumoniae ATCC 43816 LptA Q62L (4x)) was over 64 µg/mL. The MIC ([17]; NCTC13443, read-out: MIC Klebsiella pneumoniae NCTC 13443 WT) was over 64 µg/mL.

`CN(C)c1cc(NC(=O)CNC(C)(C)C)c(O)c2c1C[C@H]1C[C@H]3[C@H](N(C)C)C(O)=C(C(N)=O)C(=O)[C@@]3(O)C(O)=C1C2=O` [Tigecycline, reference compound] showed an MIC ([1]; ATCC25922, read-out: MIC E. coli ATCC 25922 Parent) of 0.25 µg/mL (≈ 0.427 µM), an MIC ([2]; ATCC43816, read-out: MIC K. pneumoniae ATCC 43816 Parent) of 0.5 µg/mL (≈ 0.854 µM) and an MIC ([3]; ATCC25922, read-out: MIC E. coli ATCC 25922 Q62L mutant) of 0.25 µg/mL (≈ 0.427 µM). It also gave an MIC ([17]; NCTC13443, read-out: MIC K. pneumoniae NCTC 13443 (NDM-1) Parent) of 2 µg/mL (≈ 3.41 µM) and an MIC ([5]; Klebsiella pneumoniae, read-out: MIC K. pneumoniae 968733 (CST-R) Parent) of 0.5 µg/mL (≈ 0.854 µM).
